Data from ChEMBL document CHEMBL1201862, “PubChem BioAssay data set” (2004).
Activity calls are given as the source filed them.

Key:
[1] = biological target: T1, Induced myeloid leukemia cell differentiation protein Mcl-1 (Homo sapiens, UniProt Q07820); assay: blockers of MCL1 binding to BIM peptide – biochemical, fluorescence polarization, BIM-BH3 peptide, 1536-well, dose response (AID 2217)
Bcl-2-like protein 1 = Bcl-2-like protein 1 (Homo sapiens, UniProt Q07817); assay: blockers of BCLXL peptide binding – biochemical, fluorescence polarization, 1536-well, selectivity assay for MCL1 inhibitor project, dose response (AID 2218)
Sequence of Bcl-2-like protein 1 (Q07817 whole entry): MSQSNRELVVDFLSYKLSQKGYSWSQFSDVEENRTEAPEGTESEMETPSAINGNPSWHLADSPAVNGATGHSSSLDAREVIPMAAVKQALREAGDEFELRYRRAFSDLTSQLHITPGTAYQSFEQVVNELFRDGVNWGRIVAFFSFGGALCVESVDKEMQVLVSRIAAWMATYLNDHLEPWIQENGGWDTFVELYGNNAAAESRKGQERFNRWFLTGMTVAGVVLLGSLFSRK

[2] = biological target: T1, Induced myeloid leukemia cell differentiation protein Mcl-1; assay type: functional
[3] = biological target: DNA (cytosine-5)-methyltransferase 1 (Homo sapiens, UniProt P26358); assay: inhibition of DNA methylation by DNMT1 – biochemical, fluorescent molecular beacon, confirmation (AID 602386); assay type: functional
[4] = biological target: T2, Probable nicotinate-nucleotide adenylyltransferase (Staphylococcus aureus (strain N315), UniProt P65502); assay type: functional, Staphylococcus aureus subsp. aureus N315;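 as to IC50 Mean: confirmatory dose-response retesting of NadD inhibitor hits first found in an ultra-high-throughput screen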
T2 sequence (P65502 whole entry): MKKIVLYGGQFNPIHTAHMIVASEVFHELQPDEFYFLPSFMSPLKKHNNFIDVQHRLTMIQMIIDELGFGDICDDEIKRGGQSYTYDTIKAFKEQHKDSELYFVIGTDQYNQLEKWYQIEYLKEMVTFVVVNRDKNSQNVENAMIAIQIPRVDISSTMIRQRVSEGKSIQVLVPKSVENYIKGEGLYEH

[5] = biological target: T2, Probable nicotinate-nucleotide adenylyltransferase; assay type: functional, Staphylococcus aureus subsp. aureus N315; settings: read-out: IC50_Mean
Albumin = Albumin (Bos taurus, UniProt P02769); assay: Counterscreen for inhibitors of T-cell receptor (TCR)-CD3 interaction: Fluorescence-based biochemical high throughput dose response assay to identify inhibitors of T-cell receptor (TCR)-CD3 interaction using a TAMRA-labeled BSA probe.; assay type: functional
Sequence of Albumin (P02769 whole entry): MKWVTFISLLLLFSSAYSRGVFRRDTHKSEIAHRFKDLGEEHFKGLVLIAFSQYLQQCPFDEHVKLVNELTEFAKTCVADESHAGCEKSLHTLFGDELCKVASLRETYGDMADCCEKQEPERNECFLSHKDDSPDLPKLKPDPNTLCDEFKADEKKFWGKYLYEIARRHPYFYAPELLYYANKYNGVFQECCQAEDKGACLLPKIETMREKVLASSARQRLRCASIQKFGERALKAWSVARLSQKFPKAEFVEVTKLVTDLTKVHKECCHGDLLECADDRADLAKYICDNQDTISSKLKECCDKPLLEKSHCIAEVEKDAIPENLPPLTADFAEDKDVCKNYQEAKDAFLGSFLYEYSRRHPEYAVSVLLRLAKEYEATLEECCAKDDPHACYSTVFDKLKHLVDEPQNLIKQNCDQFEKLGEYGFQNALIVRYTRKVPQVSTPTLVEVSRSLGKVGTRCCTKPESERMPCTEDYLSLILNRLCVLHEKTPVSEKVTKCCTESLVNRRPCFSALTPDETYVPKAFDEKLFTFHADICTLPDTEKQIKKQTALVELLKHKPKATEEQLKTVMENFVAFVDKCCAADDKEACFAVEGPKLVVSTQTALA

Aspartyl aminopeptidase = Aspartyl aminopeptidase (Plasmodium falciparum 3D7, UniProt Q8I2J3); assay: Counterscreen for inhibitors of M1 and M17 aminopeptidases: QFRET-based biochemical high throughput dose response assay for inhibitors of the Plasmodium falciparum M18 Aspartyl Aminopeptidase (PFM18AAP). [Related PubChem assays: 1619 (Screening assay (M17LAP inhibitors).), 1445 (Screening assay (M1AAP inhibitors).)]
Sequence of Aspartyl aminopeptidase (Q8I2J3 whole entry): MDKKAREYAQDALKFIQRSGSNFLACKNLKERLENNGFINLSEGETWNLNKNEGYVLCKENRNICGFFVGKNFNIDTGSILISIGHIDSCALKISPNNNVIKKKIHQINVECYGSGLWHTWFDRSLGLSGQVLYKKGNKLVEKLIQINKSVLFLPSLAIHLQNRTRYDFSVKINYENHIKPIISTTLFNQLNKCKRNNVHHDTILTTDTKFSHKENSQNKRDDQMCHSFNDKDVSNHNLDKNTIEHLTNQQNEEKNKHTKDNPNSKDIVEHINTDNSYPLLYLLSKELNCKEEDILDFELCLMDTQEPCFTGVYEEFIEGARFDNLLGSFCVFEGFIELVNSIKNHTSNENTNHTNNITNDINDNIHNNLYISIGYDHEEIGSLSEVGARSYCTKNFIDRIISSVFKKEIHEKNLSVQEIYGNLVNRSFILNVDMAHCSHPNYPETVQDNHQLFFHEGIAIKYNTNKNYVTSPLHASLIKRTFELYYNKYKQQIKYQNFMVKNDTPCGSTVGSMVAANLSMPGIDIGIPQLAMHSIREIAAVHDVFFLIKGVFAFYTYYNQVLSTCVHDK

Aminopeptidase N = biological target: T3, Aminopeptidase N (Plasmodium falciparum FcB1/Columbia, UniProt O96935); assay: malaria alanyl aminopeptidase activity blockers – biochemical, fluorogenic H-Leu-NHMec substrate, 1536-well (AID 1445); set-up: species or system Plasmodium falciparum 3D7, 3D7
T3 sequence (O96935 whole entry): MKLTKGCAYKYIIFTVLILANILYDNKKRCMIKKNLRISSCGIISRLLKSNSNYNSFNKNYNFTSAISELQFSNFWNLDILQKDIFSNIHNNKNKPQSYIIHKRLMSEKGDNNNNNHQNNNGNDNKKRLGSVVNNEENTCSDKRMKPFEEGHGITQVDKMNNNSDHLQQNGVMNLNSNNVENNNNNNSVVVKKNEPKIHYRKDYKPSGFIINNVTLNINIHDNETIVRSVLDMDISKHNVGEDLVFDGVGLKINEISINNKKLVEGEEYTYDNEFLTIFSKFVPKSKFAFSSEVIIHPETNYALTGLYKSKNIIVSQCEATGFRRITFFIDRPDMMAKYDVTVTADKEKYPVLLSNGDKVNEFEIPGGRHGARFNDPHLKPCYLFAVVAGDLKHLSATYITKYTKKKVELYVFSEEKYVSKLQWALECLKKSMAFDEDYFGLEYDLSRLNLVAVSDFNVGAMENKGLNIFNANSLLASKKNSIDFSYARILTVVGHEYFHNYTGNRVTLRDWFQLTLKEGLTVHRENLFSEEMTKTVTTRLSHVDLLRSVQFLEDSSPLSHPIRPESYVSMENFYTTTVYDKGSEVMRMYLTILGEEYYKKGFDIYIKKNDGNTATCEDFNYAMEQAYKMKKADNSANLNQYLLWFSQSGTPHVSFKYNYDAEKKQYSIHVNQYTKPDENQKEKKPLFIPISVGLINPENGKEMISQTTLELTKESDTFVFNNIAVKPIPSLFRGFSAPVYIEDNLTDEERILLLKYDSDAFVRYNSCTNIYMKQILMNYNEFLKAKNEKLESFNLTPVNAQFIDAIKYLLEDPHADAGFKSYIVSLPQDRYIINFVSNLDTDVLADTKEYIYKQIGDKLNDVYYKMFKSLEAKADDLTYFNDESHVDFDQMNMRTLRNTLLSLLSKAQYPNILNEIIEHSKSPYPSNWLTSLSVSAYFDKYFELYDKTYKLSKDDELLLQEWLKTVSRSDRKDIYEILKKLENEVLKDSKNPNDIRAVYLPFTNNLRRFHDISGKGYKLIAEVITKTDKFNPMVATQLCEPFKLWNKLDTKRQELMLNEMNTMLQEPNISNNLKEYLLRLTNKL

Procathepsin L = Procathepsin L (Homo sapiens, UniProt P07711); assay: CTSL1 protease inhibition – biochemical, QFRET, 1536-well, counter-screen for M1/M17 aminopeptidase inhibitor project, dose response (AID 2214)
Sequence of Procathepsin L (P07711 whole entry): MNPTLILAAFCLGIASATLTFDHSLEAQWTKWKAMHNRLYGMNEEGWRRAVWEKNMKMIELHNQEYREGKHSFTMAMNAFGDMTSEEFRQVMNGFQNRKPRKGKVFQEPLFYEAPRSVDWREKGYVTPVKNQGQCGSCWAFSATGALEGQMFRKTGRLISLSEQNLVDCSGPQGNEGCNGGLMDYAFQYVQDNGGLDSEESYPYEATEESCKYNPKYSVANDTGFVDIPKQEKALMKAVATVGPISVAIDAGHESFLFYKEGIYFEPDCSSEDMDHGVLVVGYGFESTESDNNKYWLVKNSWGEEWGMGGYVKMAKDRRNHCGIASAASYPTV

[6] = A High Throughput Confirmatory Assay used to Identify Novel Compounds that Inhibit Mycobacterium Tuberculosis in the absence of Glycerol.; assay type: functional
[7] = M. tuberculosis growth inhibition, HTS (AID 449762); assay type: functional
[8] = microbe, parasite or virus in culture; assay type: functional; settings: Mycobacterium tuberculosis
Vero = assay: inhibition of WNV-induced cytopathic effect – cell-based, CPE readout (AID 1621); assay type: functional; settings: Chlorocebus sabaeus
Estrogen receptor beta [9] = biological target: T4, Estrogen receptor beta (Homo sapiens, UniProt Q92731);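 also: recombinant ER-beta bound to coactivator SRC1 peptide in presence of estradiol agonist; inhibitors block coactivator peptide binding and lower the FRET signal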
T4 sequence (Q92731 whole entry): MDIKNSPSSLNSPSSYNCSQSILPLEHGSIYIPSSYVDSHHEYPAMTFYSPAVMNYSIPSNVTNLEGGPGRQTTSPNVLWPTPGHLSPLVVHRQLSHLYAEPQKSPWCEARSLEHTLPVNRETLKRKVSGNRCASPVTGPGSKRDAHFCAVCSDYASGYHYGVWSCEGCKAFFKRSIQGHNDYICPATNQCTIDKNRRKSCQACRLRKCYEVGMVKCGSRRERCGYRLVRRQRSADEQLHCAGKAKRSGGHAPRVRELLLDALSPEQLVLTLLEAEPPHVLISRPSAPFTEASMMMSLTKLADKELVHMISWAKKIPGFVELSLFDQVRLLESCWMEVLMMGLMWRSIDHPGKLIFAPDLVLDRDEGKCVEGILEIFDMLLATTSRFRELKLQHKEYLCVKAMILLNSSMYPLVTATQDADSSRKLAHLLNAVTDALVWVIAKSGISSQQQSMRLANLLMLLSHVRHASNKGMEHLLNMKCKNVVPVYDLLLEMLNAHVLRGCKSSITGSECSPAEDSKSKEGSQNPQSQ

Estrogen receptor beta [10] = biological target: T4, Estrogen receptor beta; assay: blockers of SRC-3 recruitment to ERβ – biochemical, ELISA, streptavidin-HRP readout, orthogonal assay, confirmation (AID 1060)
[11] = biological target: Low molecular weight phosphotyrosine protein phosphatase (Homo sapiens, UniProt P24666); assay type: functional; settings: read-out: IC50_Mean;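 also: Dose-response confirmation assay measuring inhibition of LMPTP enzyme activity by fluorescence intensity read-out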
Sequence of Low molecular weight phosphotyrosine protein phosphatase (P24666 whole entry): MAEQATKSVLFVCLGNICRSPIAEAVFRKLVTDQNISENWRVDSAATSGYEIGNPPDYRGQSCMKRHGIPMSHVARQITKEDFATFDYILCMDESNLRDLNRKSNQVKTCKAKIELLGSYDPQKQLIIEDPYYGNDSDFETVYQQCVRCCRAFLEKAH

Estrogen receptor = Estrogen receptor (Homo sapiens, UniProt P03372);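 also: potency for inhibiting coactivator peptide recruitment to the receptor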
Sequence of Estrogen receptor (P03372 whole entry): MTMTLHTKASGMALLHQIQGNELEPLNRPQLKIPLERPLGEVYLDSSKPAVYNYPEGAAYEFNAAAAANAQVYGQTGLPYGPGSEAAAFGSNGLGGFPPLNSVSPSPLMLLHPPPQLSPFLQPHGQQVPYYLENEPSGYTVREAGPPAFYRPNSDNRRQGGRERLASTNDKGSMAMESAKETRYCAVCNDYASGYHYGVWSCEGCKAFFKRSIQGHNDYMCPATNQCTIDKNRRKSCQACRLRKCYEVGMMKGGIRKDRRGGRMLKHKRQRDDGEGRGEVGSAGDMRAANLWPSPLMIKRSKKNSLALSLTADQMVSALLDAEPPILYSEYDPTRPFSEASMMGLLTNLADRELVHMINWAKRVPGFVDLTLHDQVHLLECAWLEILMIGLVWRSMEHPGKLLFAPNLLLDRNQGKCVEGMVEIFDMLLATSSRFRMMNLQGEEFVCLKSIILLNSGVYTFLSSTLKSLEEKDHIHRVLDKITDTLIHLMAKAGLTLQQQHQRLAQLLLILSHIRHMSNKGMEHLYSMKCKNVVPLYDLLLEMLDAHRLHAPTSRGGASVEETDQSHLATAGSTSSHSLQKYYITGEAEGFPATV

NADPH oxidase 1 = NADPH oxidase 1 (Homo sapiens, UniProt Q9Y5S8); assay: Luminescence-based cell-based dose response assay to identify inhibitors of NADPH oxidase 1 (NOX1).; assay type: functional
Sequence of NADPH oxidase 1 (Q9Y5S8 whole entry): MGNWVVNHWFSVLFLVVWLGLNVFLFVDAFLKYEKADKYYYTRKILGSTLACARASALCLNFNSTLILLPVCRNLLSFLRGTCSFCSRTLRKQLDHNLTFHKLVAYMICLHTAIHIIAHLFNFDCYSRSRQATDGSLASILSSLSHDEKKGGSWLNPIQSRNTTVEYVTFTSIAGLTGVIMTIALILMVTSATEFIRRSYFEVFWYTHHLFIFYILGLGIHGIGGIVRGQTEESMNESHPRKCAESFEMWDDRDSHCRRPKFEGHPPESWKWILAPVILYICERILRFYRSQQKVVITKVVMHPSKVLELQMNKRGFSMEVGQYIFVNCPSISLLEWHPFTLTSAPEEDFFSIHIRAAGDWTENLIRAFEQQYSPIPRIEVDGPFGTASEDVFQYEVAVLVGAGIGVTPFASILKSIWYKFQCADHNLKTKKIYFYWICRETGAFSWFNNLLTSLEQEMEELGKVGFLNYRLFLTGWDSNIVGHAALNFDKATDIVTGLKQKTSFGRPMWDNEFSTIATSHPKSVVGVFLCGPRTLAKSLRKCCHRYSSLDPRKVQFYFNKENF

[12] = biological target: T5, Rac GTPase-activating protein 1 (Homo sapiens, UniProt Q9H0H5); assay: blockers of MgcRacGAP-driven Rac1 GTP hydrolysis – biochemical, ADP Hunter fluorescence, primary and confirmatory, confirmation (AID 624330); assay type: functional
T5 sequence (Q9H0H5 whole entry): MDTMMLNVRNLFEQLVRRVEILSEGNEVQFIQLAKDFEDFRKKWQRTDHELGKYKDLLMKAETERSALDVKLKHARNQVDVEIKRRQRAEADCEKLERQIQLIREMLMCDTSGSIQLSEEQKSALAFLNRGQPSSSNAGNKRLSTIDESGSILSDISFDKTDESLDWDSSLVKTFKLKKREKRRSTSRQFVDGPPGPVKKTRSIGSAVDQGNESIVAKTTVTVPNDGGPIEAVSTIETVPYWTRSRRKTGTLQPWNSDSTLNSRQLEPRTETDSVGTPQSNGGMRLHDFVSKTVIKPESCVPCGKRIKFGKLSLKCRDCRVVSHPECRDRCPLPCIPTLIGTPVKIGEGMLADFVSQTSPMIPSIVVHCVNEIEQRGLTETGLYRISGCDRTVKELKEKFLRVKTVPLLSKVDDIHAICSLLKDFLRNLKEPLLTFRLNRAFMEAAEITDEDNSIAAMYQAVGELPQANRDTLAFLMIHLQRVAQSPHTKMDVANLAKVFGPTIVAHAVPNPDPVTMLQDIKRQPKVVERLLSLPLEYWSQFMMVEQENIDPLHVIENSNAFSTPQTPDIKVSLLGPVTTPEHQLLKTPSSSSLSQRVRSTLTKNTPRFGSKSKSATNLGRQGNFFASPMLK

T1 sequence (Q07820 whole entry): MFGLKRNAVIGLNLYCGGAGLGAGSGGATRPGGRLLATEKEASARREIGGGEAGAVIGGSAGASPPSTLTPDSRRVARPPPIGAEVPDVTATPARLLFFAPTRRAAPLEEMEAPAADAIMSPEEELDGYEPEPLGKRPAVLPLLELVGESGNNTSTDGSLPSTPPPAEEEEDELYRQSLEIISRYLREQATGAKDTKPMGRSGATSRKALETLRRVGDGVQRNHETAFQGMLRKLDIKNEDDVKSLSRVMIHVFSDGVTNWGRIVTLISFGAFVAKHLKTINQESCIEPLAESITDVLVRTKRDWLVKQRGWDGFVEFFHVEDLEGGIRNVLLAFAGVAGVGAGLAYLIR

For `O=C(Nc1cccc(S(=O)(=O)NC2=NCCC2)c1)c1cc(-c2ccco2)nc2ccccc12`, the IC50 [1] was 4.26 µM (active), the IC50 (Bcl-2-like protein 1) was > 109 µM (not active) and the IC50 [2] was 1.09 µM (active). The IC50 [3] was 3.71 µM (active), the IC50 [4] was 9.01 µM (active) and the IC50 [5] was 22.7 µM (active). For the same molecule, the IC50 (Albumin) was > 94.1 µM (inactive).

For `O=C(NCc1ccc2c(c1)OCO2)C1CCN(S(=O)(=O)c2ccc(Br)s2)CC1`, the IC50 (Aspartyl aminopeptidase) was > 73.5 µM (not active), the IC50 (Aminopeptidase N) was 2.11 µM (active) and the IC50 (Procathepsin L) was > 59.6 µM (not active).

For `COc1ccc(C2c3[nH]c4ccccc4c3CCN2C(=O)c2cc3ncccn3n2)c(F)c1` (stereo unspecified), the IC50 [6] was > 100 µM (active), the IC50 [7] was > 100 µM (active) and the CC50 [8] was > 40 µM (active). For the same molecule, the IC50 (Vero) was 34.6 µM (active).

For `N=c1c(C(=O)NCc2ccc3c(c2)OCO3)cc2c(=O)n3ccccc3nc2n1Cc1cccnc1`, the IC50 (Estrogen receptor beta [9]) was 5.48 µM (active), the IC50 (Estrogen receptor beta [10]) was > 50 µM (not active) and the IC50 [2] was 4.3 µM (active). For the same molecule, the IC50 [11] was 17.1 µM (active).

With `CN(CC(=O)NC(=O)NCc1ccco1)Cc1nc(O)c2ccccc2n1` the IC50 (Estrogen receptor) was 13.7 µM (active).

In the case of `CCN(CC)c1ccc(NC(=O)Nc2ccccc2)cc1`, the IC50 (NADPH oxidase 1) was 0.176 µM (active) and the IC50 [12] was 45 µM (active).
